Measurements taken from patent EP4745137A1 (Gluetacs Therapeutics (Shanghai) Co., Ltd., priority 2023, dated 2025).

Tests used:
Type in all cases: cell-based
Details in all cases: 24 hours of compound treatment
[1] = biological target: T1, WEE1 (Homo sapiens, UniProt P30291+Q96SW2); assay: Western-blot assay of substrate protein degradation in hPBMCs, WEE1
T1 construct: endogenous in cells; host or cells: hPBMCs (Milecell Biotechnologies)

[2] = biological target: T2, IKZF2 (Homo sapiens, UniProt Q96SW2+Q9UKS7); assay: Western-blot assay of substrate protein degradation in hPBMCs, IKZF2
T2 construct: endogenous in cells; host or cells: hPBMCs (Milecell Biotechnologies)
T2 sequence (Q9UKS7 whole entry): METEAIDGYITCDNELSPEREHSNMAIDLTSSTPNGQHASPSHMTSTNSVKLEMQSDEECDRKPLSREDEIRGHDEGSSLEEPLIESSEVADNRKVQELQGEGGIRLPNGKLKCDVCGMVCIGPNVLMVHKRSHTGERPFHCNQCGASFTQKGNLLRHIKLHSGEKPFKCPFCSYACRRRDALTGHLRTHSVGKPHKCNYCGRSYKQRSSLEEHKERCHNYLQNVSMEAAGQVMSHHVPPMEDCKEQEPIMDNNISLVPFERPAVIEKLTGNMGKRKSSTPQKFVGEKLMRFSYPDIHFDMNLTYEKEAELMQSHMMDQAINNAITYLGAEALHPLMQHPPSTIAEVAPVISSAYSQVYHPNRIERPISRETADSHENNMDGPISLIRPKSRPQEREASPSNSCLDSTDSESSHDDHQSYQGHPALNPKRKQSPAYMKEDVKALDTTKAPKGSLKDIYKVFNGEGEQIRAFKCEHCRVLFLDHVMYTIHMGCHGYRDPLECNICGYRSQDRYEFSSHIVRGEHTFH
T2 sequence (Q96SW2 whole entry): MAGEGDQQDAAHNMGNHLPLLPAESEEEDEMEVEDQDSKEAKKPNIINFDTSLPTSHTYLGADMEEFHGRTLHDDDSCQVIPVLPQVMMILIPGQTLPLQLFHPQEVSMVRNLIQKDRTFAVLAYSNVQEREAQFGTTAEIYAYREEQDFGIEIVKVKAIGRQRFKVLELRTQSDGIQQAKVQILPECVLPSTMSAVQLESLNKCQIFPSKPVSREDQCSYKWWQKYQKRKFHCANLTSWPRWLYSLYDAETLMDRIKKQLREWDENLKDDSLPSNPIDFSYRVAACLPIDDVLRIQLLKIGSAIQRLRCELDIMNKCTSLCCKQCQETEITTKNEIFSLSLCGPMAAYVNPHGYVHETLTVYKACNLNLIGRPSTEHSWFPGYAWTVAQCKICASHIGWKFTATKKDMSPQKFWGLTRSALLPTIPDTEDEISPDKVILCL
T2 sequence (Q16531 whole entry partner): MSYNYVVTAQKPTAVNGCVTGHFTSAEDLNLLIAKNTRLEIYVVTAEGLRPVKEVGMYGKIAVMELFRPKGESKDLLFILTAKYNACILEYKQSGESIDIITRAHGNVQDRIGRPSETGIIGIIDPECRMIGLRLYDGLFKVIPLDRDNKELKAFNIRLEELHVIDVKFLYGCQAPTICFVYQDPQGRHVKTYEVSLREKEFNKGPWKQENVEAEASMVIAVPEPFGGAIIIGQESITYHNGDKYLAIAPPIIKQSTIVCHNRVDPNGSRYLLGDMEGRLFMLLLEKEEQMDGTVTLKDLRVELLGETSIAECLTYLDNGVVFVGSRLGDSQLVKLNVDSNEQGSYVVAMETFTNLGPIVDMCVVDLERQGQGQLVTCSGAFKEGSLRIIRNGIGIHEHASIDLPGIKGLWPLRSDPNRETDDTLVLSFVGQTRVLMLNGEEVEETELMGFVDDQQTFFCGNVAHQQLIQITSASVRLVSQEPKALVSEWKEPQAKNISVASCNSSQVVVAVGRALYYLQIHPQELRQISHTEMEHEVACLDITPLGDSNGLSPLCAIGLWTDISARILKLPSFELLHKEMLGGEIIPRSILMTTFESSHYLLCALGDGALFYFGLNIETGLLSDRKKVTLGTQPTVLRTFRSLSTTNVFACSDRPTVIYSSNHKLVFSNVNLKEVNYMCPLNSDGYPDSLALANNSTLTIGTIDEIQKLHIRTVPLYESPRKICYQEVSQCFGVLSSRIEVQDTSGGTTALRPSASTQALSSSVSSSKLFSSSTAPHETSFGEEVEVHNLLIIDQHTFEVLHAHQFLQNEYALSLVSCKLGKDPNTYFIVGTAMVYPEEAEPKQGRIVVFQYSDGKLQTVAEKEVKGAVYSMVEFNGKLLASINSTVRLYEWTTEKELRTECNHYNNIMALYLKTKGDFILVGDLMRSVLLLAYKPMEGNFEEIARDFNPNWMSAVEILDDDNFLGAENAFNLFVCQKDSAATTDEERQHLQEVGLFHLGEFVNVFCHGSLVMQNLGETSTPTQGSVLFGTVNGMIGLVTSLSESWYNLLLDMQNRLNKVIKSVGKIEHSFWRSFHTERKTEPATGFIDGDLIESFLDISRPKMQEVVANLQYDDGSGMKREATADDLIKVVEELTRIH

[3] = biological target: T3, CK1α (Homo sapiens, UniProt P48729+Q96SW2); assay: Western-blot assay of substrate protein degradation in hPBMCs, CK1α
T3 construct: endogenous in cells; host or cells: hPBMCs (Milecell Biotechnologies)
T3 sequence (P48729 whole entry): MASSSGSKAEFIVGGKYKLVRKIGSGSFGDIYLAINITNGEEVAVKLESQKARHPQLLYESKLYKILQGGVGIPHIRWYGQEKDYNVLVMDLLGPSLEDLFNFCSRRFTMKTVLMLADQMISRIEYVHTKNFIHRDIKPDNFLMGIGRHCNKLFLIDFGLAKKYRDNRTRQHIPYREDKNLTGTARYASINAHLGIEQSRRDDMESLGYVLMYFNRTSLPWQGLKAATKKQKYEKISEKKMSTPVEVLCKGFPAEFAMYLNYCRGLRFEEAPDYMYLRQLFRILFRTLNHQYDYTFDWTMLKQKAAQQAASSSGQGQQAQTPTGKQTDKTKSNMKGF
T3 sequence (Q96SW2 whole entry): as the sequence (Q96SW2 whole entry) above
T3 sequence (Q16531 whole entry partner): as the sequence (Q16531 whole entry partner) above

[4] = biological target: T4, IKZF1 (Homo sapiens, UniProt Q13422+Q96SW2); assay: Western-blot assay of substrate protein degradation in hPBMCs, IKZF1
T4 construct: endogenous in cells; host or cells: hPBMCs (Milecell Biotechnologies)

[5] = biological target: T5, GSPT1 (Homo sapiens, UniProt P15170+Q96SW2); assay: Western-blot assay of substrate protein degradation in hPBMCs, GSPT1
T5 construct: endogenous in cells; host or cells: hPBMCs (Milecell Biotechnologies)
T5 sequence (P15170 whole entry): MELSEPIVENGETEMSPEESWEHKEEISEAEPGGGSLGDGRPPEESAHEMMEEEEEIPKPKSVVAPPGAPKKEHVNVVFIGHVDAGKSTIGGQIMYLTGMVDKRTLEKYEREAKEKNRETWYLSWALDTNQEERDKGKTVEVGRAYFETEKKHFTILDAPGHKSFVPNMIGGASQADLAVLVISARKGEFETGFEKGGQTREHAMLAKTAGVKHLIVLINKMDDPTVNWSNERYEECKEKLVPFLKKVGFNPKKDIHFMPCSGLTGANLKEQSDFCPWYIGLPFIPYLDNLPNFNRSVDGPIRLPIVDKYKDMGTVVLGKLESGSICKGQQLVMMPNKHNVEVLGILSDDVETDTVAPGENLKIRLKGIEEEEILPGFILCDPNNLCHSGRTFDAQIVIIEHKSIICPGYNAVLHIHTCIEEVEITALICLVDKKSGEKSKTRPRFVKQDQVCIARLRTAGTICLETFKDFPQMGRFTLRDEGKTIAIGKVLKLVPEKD
T5 sequence (Q96SW2 whole entry): as the sequence (Q96SW2 whole entry) above
T5 sequence (Q16531 whole entry partner): as the sequence (Q16531 whole entry partner) above

[6] = biological target: T6, IKZF3 (Homo sapiens, UniProt Q96SW2+Q9UKT9); assay: Western-blot assay of substrate protein degradation in hPBMCs, IKZF3
T6 construct: endogenous in cells; host or cells: hPBMCs (Milecell Biotechnologies)
T6 sequence (Q9UKT9 whole entry): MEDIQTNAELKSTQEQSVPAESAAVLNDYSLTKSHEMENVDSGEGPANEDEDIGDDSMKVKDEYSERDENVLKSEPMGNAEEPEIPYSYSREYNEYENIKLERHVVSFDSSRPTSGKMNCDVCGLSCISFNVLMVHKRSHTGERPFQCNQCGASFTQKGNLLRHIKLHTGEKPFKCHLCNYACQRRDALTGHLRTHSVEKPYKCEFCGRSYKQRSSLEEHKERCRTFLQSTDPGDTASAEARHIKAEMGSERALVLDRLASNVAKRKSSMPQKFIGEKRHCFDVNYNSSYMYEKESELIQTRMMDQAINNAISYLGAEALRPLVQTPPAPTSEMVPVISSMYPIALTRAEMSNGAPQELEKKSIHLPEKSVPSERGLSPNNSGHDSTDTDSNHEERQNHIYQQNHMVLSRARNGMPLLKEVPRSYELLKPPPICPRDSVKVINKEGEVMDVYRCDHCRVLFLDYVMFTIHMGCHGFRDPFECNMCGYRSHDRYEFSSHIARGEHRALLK
T6 sequence (Q96SW2 whole entry): as the sequence (Q96SW2 whole entry) above
T6 sequence (Q16531 whole entry partner): as the sequence (Q16531 whole entry partner) above

[7] = 50 nM and 500 nM tested (concentration behind the class not stated)
[8] = compounds tested at 50 nM and 500 nM (concentration of the table not stated)

T1 sequence (P30291 whole entry): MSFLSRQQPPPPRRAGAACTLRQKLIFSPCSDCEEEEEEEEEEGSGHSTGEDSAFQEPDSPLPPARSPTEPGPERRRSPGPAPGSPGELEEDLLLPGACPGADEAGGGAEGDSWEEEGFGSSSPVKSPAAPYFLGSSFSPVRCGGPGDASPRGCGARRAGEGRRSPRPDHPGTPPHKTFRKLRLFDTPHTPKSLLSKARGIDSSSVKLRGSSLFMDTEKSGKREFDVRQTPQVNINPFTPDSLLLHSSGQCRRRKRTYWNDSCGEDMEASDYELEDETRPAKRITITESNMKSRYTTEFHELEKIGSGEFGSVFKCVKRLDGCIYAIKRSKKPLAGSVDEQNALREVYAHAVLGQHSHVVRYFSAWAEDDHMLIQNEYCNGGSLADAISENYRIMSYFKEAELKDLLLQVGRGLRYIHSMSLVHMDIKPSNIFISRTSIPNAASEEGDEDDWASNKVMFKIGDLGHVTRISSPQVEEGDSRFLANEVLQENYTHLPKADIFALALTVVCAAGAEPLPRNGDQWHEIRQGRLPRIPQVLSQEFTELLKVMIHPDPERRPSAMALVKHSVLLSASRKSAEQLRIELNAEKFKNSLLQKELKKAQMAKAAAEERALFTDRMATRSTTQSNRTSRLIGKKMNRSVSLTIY
T1 sequence (Q96SW2 whole entry): as the sequence (Q96SW2 whole entry) above
T1 sequence (Q16531 whole entry partner): as the sequence (Q16531 whole entry partner) above

O=C1CCC(N2C(=O)c3ccc(CN4CCC(c5cccc(Br)c5)CC4)cc3C2=O)C(=O)N1 (stereo not drawn) [GT-06369, 5-((4-(3-bromophenyl)piperidin-1-yl)methyl)-2-(2,6-dioxopiperidin-3-yl)isoindoline-1,3-dione]
Weel substrate protein remaining % [1, 7]: A (0% ≤ substrate protein remaining % ≤ 80%) | IKZF2 substrate protein remaining % [2, 7]: A (0% ≤ substrate protein remaining % ≤ 80%) | CK1a substrate protein remaining % [3, 7]: A (0% ≤ substrate protein remaining % ≤ 80%) | IKZF 1 substrate protein remaining % [4, 7]: A (0% ≤ substrate protein remaining % ≤ 80%) | GSPT1 substrate protein remaining % [5, 7]: A (0% ≤ substrate protein remaining % ≤ 80%) | IKZF3 substrate protein remaining % [6, 7]: A (0% ≤ substrate protein remaining % ≤ 80%)

Cc1cc(N2CCN(Cc3ccc4c(c3)C(=O)N(C3CCC(=O)NC3=O)C4=O)CC2)cs1 (stereo not drawn) [GT-06218, 2-(2,6-dioxopiperidin-3-yl)-5-((4-(5-methylthiophen-3-yl)piperazin-1-yl)methyl)isoindoline-1,3-dione]
Weel substrate protein remaining % [1, 7]: A (0% ≤ substrate protein remaining % ≤ 80%) | IKZF2 substrate protein remaining % [2, 7]: B (80%< substrate protein remaining %≤ 100%) | CK1a substrate protein remaining % [3, 7]: A (0% ≤ substrate protein remaining % ≤ 80%) | IKZF 1 substrate protein remaining % [4, 7]: B (80%< substrate protein remaining %≤ 100%) | GSPT1 substrate protein remaining % [5, 7]: A (0% ≤ substrate protein remaining % ≤ 80%) | IKZF3 substrate protein remaining % [6, 7]: A (0% ≤ substrate protein remaining % ≤ 80%)

Cc1ccc(N2CCN(Cc3ccc4c(c3)C(=O)N(C3CCC(=O)NC3=O)C4=O)CC2)cc1 (stereo not drawn) [GT-06277, 2-(2,6-dioxopiperidin-3-yl)-5-((4-(p-tolyl)piperazin-1-yl)methyl)isoindoline-1,3-dione]
Weel substrate protein remaining % [1, 7]: B (80%< substrate protein remaining %≤ 100%) | IKZF2 substrate protein remaining % [2, 7]: B (80%< substrate protein remaining %≤ 100%) | CK1a substrate protein remaining % [3, 7]: B (80%< substrate protein remaining %≤ 100%) | IKZF 1 substrate protein remaining % [4, 7]: B (80%< substrate protein remaining %≤ 100%) | GSPT1 substrate protein remaining % [5, 7]: A (0% ≤ substrate protein remaining % ≤ 80%) | IKZF3 substrate protein remaining % [6, 7]: B (80%< substrate protein remaining %≤ 100%)

O=C1CCC(N2C(=O)c3ccc(CN4CCC(c5ccnc(Cl)c5Cl)CC4)cc3C2=O)C(=O)N1 (stereo not drawn) [GT-06615, 5-((4-(2,3-dichloropyridin-4-yl)piperidin-1-yl)methyl)-2-(2,6-dioxopiperidin-3-yl)isoindoline-1,3-dione]
Weel substrate protein remaining % [1, 7]: A (0% ≤ substrate protein remaining % ≤ 80%) | IKZF2 substrate protein remaining % [2, 7]: B (80%< substrate protein remaining %≤ 100%) | CK1a substrate protein remaining % [3, 7]: A (0% ≤ substrate protein remaining % ≤ 80%) | IKZF 1 substrate protein remaining % [4, 7]: B (80%< substrate protein remaining %≤ 100%) | GSPT1 substrate protein remaining % [5, 7]: A (0% ≤ substrate protein remaining % ≤ 80%) | IKZF3 substrate protein remaining % [6, 7]: A (0% ≤ substrate protein remaining % ≤ 80%)

O=C1CCC(N2C(=O)c3ccc(CN4CCN(c5ncccc5C(F)(F)F)CC4)cc3C2=O)C(=O)N1 (stereo not drawn) [GT-06529, 2-(2,6-dioxopiperidin-3-yl)-5-((4-(3-(trifluoromethyl)pyridin-2-yl)piperazin-1-yl)methyl)isoindoline-1,3-dione]
Weel substrate protein remaining % [1, 7]: A (0% ≤ substrate protein remaining % ≤ 80%) | IKZF2 substrate protein remaining % [2, 7]: A (0% ≤ substrate protein remaining % ≤ 80%) | CK1a substrate protein remaining % [3, 7]: B (80%< substrate protein remaining %≤ 100%) | IKZF 1 substrate protein remaining % [4, 7]: B (80%< substrate protein remaining %≤ 100%) | GSPT1 substrate protein remaining % [5, 7]: A (0% ≤ substrate protein remaining % ≤ 80%) | IKZF3 substrate protein remaining % [6, 7]: A (0% ≤ substrate protein remaining % ≤ 80%)

O=C1CCC(N2C(=O)c3ccc(CN4CCN(c5noc6cc(F)ccc56)CC4)cc3C2=O)C(=O)N1 (stereo not drawn) [GT-06629, 2-(2,6-dioxopiperidin-3-yl)-5-((4-(6-fluorobenzo[d]isoxazol-3-yl)piperazin-1-yl)methyl)isoindoline-1,3-dione]
Weel substrate protein remaining % [1, 7]: A (0% ≤ substrate protein remaining % ≤ 80%) | IKZF2 substrate protein remaining % [2, 7]: A (0% ≤ substrate protein remaining % ≤ 80%) | CK1a substrate protein remaining % [3, 7]: A (0% ≤ substrate protein remaining % ≤ 80%) | IKZF 1 substrate protein remaining % [4, 7]: B (80%< substrate protein remaining %≤ 100%) | GSPT1 substrate protein remaining % [5, 7]: A (0% ≤ substrate protein remaining % ≤ 80%) | IKZF3 substrate protein remaining % [6, 7]: B (80%< substrate protein remaining %≤ 100%)

O=C1CCC(N2C(=O)c3ccc(CN4CCC(C5CCOc6cc(F)ccc65)CC4)cc3C2=O)C(=O)N1 (stereo not drawn) [GT-06237, 2-(2,6-dioxopiperidin-3-yl)-5-((4-(7-fluorochroman-4-yl)piperidin-1-yl)methyl)isoindoline-1,3-dione]
Weel substrate protein remaining % [1, 8]: B (80%< substrate protein remaining %≤ 100%) | IKZF2 substrate protein remaining % [2, 8]: B (80%< substrate protein remaining %≤ 100%) | CK1a substrate protein remaining % [3, 8]: B (80%< substrate protein remaining %≤ 100%) | IKZF 1 substrate protein remaining % [4, 8]: B (80%< substrate protein remaining %≤ 100%) | GSPT1 substrate protein remaining % [5, 8]: A (0% ≤ substrate protein remaining % ≤ 80%) | IKZF3 substrate protein remaining % [6, 8]: B (80%< substrate protein remaining %≤ 100%)

O=C1CCC(N2C(=O)c3ccc(CN4CCN(c5ncnc6sccc56)CC4)cc3C2=O)C(=O)N1 (stereo not drawn) [GT-06303, 2-(2,6-dioxopiperidin-3-yl)-5-((4-(thieno[2,3-d]pyrimidin-4-yl)piperazin-1-yl)methyl)isoindoline-1,3-dione]
Weel substrate protein remaining % [1, 7]: B (80%< substrate protein remaining %≤ 100%) | IKZF2 substrate protein remaining % [2, 7]: B (80%< substrate protein remaining %≤ 100%) | CK1a substrate protein remaining % [3, 7]: B (80%< substrate protein remaining %≤ 100%) | IKZF 1 substrate protein remaining % [4, 7]: A (0% ≤ substrate protein remaining % ≤ 80%) | GSPT1 substrate protein remaining % [5, 7]: B (80%< substrate protein remaining %≤ 100%) | IKZF3 substrate protein remaining % [6, 7]: B (80%< substrate protein remaining %≤ 100%)

O=C1CCC(N2C(=O)c3ccc(CN4CCN(c5cc(Cl)cc(Cl)c5)CC4)cc3C2=O)C(=O)N1 (stereo not drawn) [GT-06299, 5-((4-(3,5-dichlorophenyl)piperazin-1-yl)methyl)-2-(2,6-dioxopiperidin-3-yl)isoindoline-1,3-dione]
Weel substrate protein remaining % [1, 7]: B (80%< substrate protein remaining %≤ 100%) | IKZF2 substrate protein remaining % [2, 7]: B (80%< substrate protein remaining %≤ 100%) | CK1a substrate protein remaining % [3, 7]: B (80%< substrate protein remaining %≤ 100%) | IKZF 1 substrate protein remaining % [4, 7]: B (80%< substrate protein remaining %≤ 100%) | GSPT1 substrate protein remaining % [5, 7]: A (0% ≤ substrate protein remaining % ≤ 80%) | IKZF3 substrate protein remaining % [6, 7]: B (80%< substrate protein remaining %≤ 100%)

O=C1CCC(N2Cc3c(CN4CCC(c5noc6cc(F)ccc56)CC4)cccc3C2=O)C(=O)N1 (stereo not drawn) [GT-04764, 3-(4-((4-(6-fluorobenzo[d]isoxazol-3-yl)piperidin-1-yl)methyl)-1-oxoisoindolin-2-yl)piperidine-2,6-dione]
Weel substrate protein remaining % [1, 8]: A (0% ≤ substrate protein remaining % ≤ 80%) | IKZF2 substrate protein remaining % [2, 8]: B (80%< substrate protein remaining %≤ 100%) | CK1a substrate protein remaining % [3, 8]: A (0% ≤ substrate protein remaining % ≤ 80%) | IKZF 1 substrate protein remaining % [4, 8]: B (80%< substrate protein remaining %≤ 100%) | GSPT1 substrate protein remaining % [5, 8]: A (0% ≤ substrate protein remaining % ≤ 80%) | IKZF3 substrate protein remaining % [6, 8]: B (80%< substrate protein remaining %≤ 100%)
